Results reported in patent publication US20120101099A1, “HISTONE DEACETYLASE INHIBITORS” (ANTHEM BIOSCIENCES PRIVATE LIMITED, priority 2009, published 2012).
Where a name gives a salt, the structure may show the parent alone. Read-outs that look alike come from different tables or passages of the source. One block for each compound: values may come before it.

Assays:
Format in all cases: cell-based
RPMI-8226 = assay: Anti-proliferative activity (GI50); details: Homo sapiens
Protocol: (§1) Cells were seeded in a 96-well cell culture plates at a concentration of 10,000 cells per well and incubated at 37° C. in CO2 incubator.
(§2) Twenty-four hours later cells were treated with different concentrations (100, 10, 1, 0.1, and 0.01 μM) of compound dissolved in DMSO and incubated for 48 hours. For To measurement, 24 hours after seeding the cells, 20 μL of 3-(4.5-dimethyl-2- thiazolyl)-2,5-diphenyl-2H-tetrazolium (MTT) solution per well was added to the T0 plate and incubated for 3 hours at 37° C. in a CO2 incubator.
(§3) The plate containing cells and test compounds was treated similarly after 48 hours of incubation. After 3 hours of MTT addition, well contents were aspirated carefully followed by addition of 100 μL DMSO per well. Plates were agitated to ensure dissolution of the formazan crystals in DMSO and absorbance was read at 570 nm (A570). […] From the percentage growths a dose response curve was generated and GI50 values were interpolated from the growth curves.

U-87-MG = assay: Anti-proliferative activity (GI50); details: Homo sapiens, read-out: Anti-proliferative activity (GI50) U-87-MG
Protocol: as §1, §2, §3

Hela-S3 = assay: Anti-proliferative activity (GI50); details: Homo sapiens
Protocol: as §1, §2, §3

ACHN = assay: Anti-proliferative activity (GI50); details: Homo sapiens, read-out: Anti-proliferative activity (GI50) ACHN
Protocol: as §1, §2, §3

MCF-7 = assay: Anti-proliferative activity (GI50); details: Homo sapiens
Protocol: as §1, §2, §3

HCT-116 = assay: Anti-proliferative activity (GI50); details: Homo sapiens
Protocol: as §1, §2, §3

Colo-205 = assay: Anti-proliferative activity (GI50); details: Homo sapiens
Protocol: as §1, §2, §3

DU-145 = assay: Anti-proliferative activity (GI50); details: Homo sapiens
Protocol: as §1, §2, §3

SH-SY-5Y = assay: Anti-proliferative activity (GI50); details: Homo sapiens, SH-SY5Y, read-out: Anti-proliferative activity (GI50) SH-SY-5Y
Protocol: as §1, §2, §3

K562 = assay: Anti-proliferative activity (GI50); details: Homo sapiens
Protocol: as §1, §2, §3

Calu-6 = assay: Anti-proliferative activity (GI50); details: Homo sapiens
Protocol: as §1, §2, §3

A431 = assay: Anti-proliferative activity (GI50); details: Homo sapiens
Protocol: as §1, §2, §3

PANC-1 = assay: Anti-proliferative activity (GI50); details: Homo sapiens
Protocol: as §1, §2, §3

KHOS = assay: Anti-proliferative activity (GI50); details: read-out: Anti-proliferative activity (GI50) KHOS
Protocol: as §1, §2, §3

Ca Ski = assay: Anti-proliferative activity (GI50); details: Homo sapiens, read-out: Anti-proliferative activity (GI50) Ca Ski
Protocol: as §1, §2, §3

IMR-32 = assay: Anti-proliferative activity (GI50); details: Homo sapiens
Protocol: as §1, §2, §3

HCT-15 = assay: Anti-proliferative activity (GI50); details: Homo sapiens
Protocol: as §1, §2, §3

PC-3 = assay: Cell proliferation assay (MTT); details: Homo sapiens
Protocol: as §1, §2, §3

HT-29 = assay: Cell proliferation assay (MTT); details: Homo sapiens
Protocol: as §1, §2, §3

A549 = assay: Cell proliferation assay (MTT); details: Homo sapiens
Protocol: as §1, §2, §3

HL-60 (AML) cells = assay: Differentiation assay; details: Homo sapiens, 72 h; HL-60 cells, 3 days, H2 DCF-DA oxidation
Protocol: HL-60 (AML) cells were seeded (5×10^4 cells/well) into a 96 well plate and after 24 hrs cells were treated for 3 days with compounds in 8 different concentration (3000, 1000, 300, 100, 30, 10, 3, 1 nM) including control and 60 μM of H2 DCF-DA probe added to the cells. After 2 hours incubation oxidation of H2 DCF-DA was measured.

P21 = assay: p21 induction in HeLa cells (Western Blot); set-up: key: represented by the symbol ‘+’ which indicates the relative extent of modulation; ++: represented by the symbol ‘+’ which indicates the relative extent of modulation; +++: represented by the symbol ‘+’ which indicates the relative extent of modulation; ++++: represented by the symbol ‘+’ which indicates the relative extent of modulation; details: 24 hrs, 0.03-3.0 μM
Protocol: HeLa Cells were seeded at a density of 0.5×10^6 Cells/well into 6 well plates and incubated for 24 hrs. Compounds were tested at 5 different concentrations (0.03, 0.1, 0.3, 1.0, 3.0 μM) including corresponding controls. After 24 hrs cells were lysed and the cellular extract was used for measuring P21 induction by Western Blot using monoclonal Anti-p21 clone CP74 antibody (Sigma).

[1] = RPMI-8226, Table 9, Leukemia, read-out: Anti-proliferative activity (GI50) RPMI-8226
[2] = HeLa S3, Table 9, Cervix, read-out: Anti-proliferative activity (GI50) Hela-S3
[3] = MCF7, Table 9, Breast, read-out: Anti-proliferative activity (GI50) MCF-7
[4] = HCT-116, Table 9, Colon, read-out: Anti-proliferative activity (GI50) HCT-116
[5] = COLO 205, Table 9, Colon, read-out: Anti-proliferative activity (GI50) Colo-205
[6] = DU-145, Table 9, Prostate, read-out: Anti-proliferative activity (GI50) DU-145
[7] = K562, Table 9, Leukemia, read-out: Anti-proliferative activity (GI50) K562
[8] = Calu-6, Table 9, Lung, read-out: Anti-proliferative activity (GI50) Calu-6
[9] = A-431, Table 9, Skin, read-out: Anti-proliferative activity (GI50) A431
[10] = PANC-1, Table 9, Pancreas, read-out: Anti-proliferative activity (GI50) PANC-1
[11] = IMR-32, Table 9, Brain, read-out: Anti-proliferative activity (GI50) IMR-32
[12] = HCT-15, Table 9, Colon, read-out: Anti-proliferative activity (GI50) HCT-15
[13] = PC-3, Table 1, MTT, 48 hours, read-out: Cell growth inhibition (GI50 in μM) PC-3
[14] = PC-3, Table 9, Prostate, read-out: Anti-proliferative activity (GI50) PC-3
[15] = HT-29, Table 9, Colon, read-out: Anti-proliferative activity (GI50) HT-29
[16] = A549, Table 1, MTT, 48 hours, read-out: Cell growth inhibition (GI50 in μM) A549
[17] = A549, Table 9, Lung, read-out: Anti-proliferative activity (GI50) A549

GI50 (RPMI-8226; [1]): 300 ± 160 nM
GI50 (U-87-MG; Table 9, Brain): 1000 ± 330 nM
GI50 (Hela-S3; [2]): 200 ± 80 nM
GI50 (ACHN; Table 9, Renal): 100 ± 40 nM
GI50 (MCF-7; [3]): 5500 ± 1200 nM
GI50 (HCT-116; [4]): 200 ± 40 nM
GI50 (Colo-205; [5]): 400 ± 40 nM
GI50 (DU-145; [6]): 100 ± 40 nM
GI50 (SH-SY-5Y; Table 9, Brain): 100 nM
GI50 (K562; [7]): 200 ± 40 nM
GI50 (Calu-6; [8]): 400 ± 120 nM
GI50 (A431; [9]): 400 ± 80 nM
GI50 (PANC-1; [10]): 1400 nM
GI50 (HCT-15; [12]): 1800 ± 1140 nM
GI50 (PC-3; [13]): 11.3 ± 8.3 µM
GI50 (PC-3; [14]): 4.8 ± 1.4 µM
GI50 (HT-29; [15]): 2.1 ± 0.46 µM
GI50 (A549; [16]): 2.2 ± 2.3 µM
GI50 (A549; [17]): 2.2 ± 2.22 µM
SMILES: CN(C)Cc1ccc(-c2cn(Cc3ccc(/C=C/C(=O)NO)cc3)nn2)cc1 [Example 21]
GI50 (KHOS; Table 9, Bone): 10300 ± 3260 nM
GI50 (Ca Ski; Table 9, Cervix): 1100 ± 730 nM
GI50 (IMR-32; [11]): 200 ± 40 nM

EC50 (HL-60 (AML) cells): 3830 nM
GI50 (RPMI-8226; [1]): 200 ± 250 nM
GI50 (U-87-MG; Table 9, Brain): 1100 ± 730 nM
GI50 (Hela-S3; [2]): 200 ± 20 nM
GI50 (ACHN; Table 9, Renal): 200 ± 80 nM
GI50 (MCF-7; [3]): 2100 ± 2630 nM
GI50 (HCT-116; [4]): 200 ± 50 nM
GI50 (Colo-205; [5]): 200 ± 30 nM
GI50 (DU-145; [6]): 100 ± 30 nM
GI50 (SH-SY-5Y; Table 9, Brain): 200 ± 30 nM
GI50 (K562; [7]): 200 ± 80 nM
GI50 (Calu-6; [8]): 600 ± 180 nM
GI50 (A431; [9]): 200 ± 30 nM
GI50 (PANC-1; [10]): 4000 nM
GI50 (HCT-15; [12]): 1700 ± 890 nM
GI50 (PC-3; [13]): 4 ± 3.9 µM
GI50 (PC-3; [14]): 1.7 ± 1.02 µM
GI50 (HT-29; HT-29, Table 1, MTT, 48 hours, read-out: Cell growth inhibition (GI50 in μM) HT-29): 0.2 µM
GI50 (HT-29; [15]): 0.4 ± 0.13 µM
GI50 (A549; [16]): 2.5 ± 0.8 µM
GI50 (A549; [17]): 2 ± 1.52 µM
SMILES: O=C(/C=C/c1cccc(Cn2cc(-c3ccc(CN4CCOCC4)cc3)nn2)c1)NO [Example 25, N-Hydroxy-3-{3-[4-(4-morpholin-4-ylmethyl-phenyl)-[1,2,3]triazol-1-ylmethyl]-phenyl}-acrylamide hydrochloride]
GI50 (KHOS; Table 9, Bone): 4600 ± 550 nM
GI50 (Ca Ski; Table 9, Cervix): 400 ± 280 nM
GI50 (IMR-32; [11]): 200 ± 20 nM
P21 induction (P21): ++

GI50 (RPMI-8226; RPMI-8226, read-out: Anti-proliferative activity (GI50) RPMI-8226): 2200 ± 2300 nM
GI50 (U-87-MG): 6700 ± 1100 nM
GI50 (Hela-S3; HeLa S3, read-out: Anti-proliferative activity (GI50) Hela-S3): 2900 ± 500 nM
GI50 (ACHN): 1600 ± 500 nM
GI50 (MCF-7; MCF7, read-out: Anti-proliferative activity (GI50) MCF-7): 5500 ± 1200 nM
GI50 (HCT-116; HCT-116, read-out: Anti-proliferative activity (GI50) HCT-116): 2200 nM
GI50 (Colo-205; COLO 205, read-out: Anti-proliferative activity (GI50) Colo-205): 1600 ± 100 nM
GI50 (DU-145; DU-145, read-out: Anti-proliferative activity (GI50) DU-145): 1300 nM
GI50 (SH-SY-5Y): 800 ± 400 nM
GI50 (K562; K562, read-out: Anti-proliferative activity (GI50) K562): 2200 ± 700 nM
GI50 (Calu-6; Calu-6, read-out: Anti-proliferative activity (GI50) Calu-6): 3500 ± 500 nM
GI50 (A431; A-431, read-out: Anti-proliferative activity (GI50) A431): 1900 ± 1000 nM
GI50 (PANC-1; PANC-1, read-out: Anti-proliferative activity (GI50) PANC-1): 21900 nM
GI50 (HCT-15; HCT-15, read-out: Anti-proliferative activity (GI50) HCT-15): 5200 ± 1900 nM
GI50 (PC-3; PC-3, read-out: Anti-proliferative activity (GI50) PC-3): 8.3 ± 0.6 µM
GI50 (HT-29; HT-29, read-out: Anti-proliferative activity (GI50) HT-29): 3.6 ± 2.6 µM
GI50 (A549; A549, read-out: Anti-proliferative activity (GI50) A549): 5.9 ± 2.4 µM
SMILES: O=C(CCCCCCC(=O)Nc1ccccc1)NO [SAHA, Suberoylanilide Hydroxamic Acid, reference compound]
GI50 (KHOS): 29300 ± 7200 nM
GI50 (Ca Ski): 6000 ± 5300 nM
GI50 (IMR-32; IMR-32, read-out: Anti-proliferative activity (GI50) IMR-32): 1800 ± 200 nM
P21 induction (P21): +++
